According to patent US7879817B2, “Hyaluronic acid derivative and drug containing the same” (priority 2004, dated 2011):

Assays:
[1] = test system: 1% silver nitrate-induced pain model; assay: 1% silver nitrate-induced pain model in rats
Excerpt: As General anesthesia, inhalation of isoflurane (Forane (registered trade mark), Dainippon Pharmaceutical Co., Ltd., concentration 3.0%, flow rate 2.0 liters/min) filled in a small animal anesthetizer (TK-4, manufactured by BioMachinery Co., Ltd.) was employed.
Rats (Crj:SD (SPF), male, 6-weeks-old) were fixed in the supine position under ether anesthesia, and a wide area around the knee joint of the left hind paw was shaved with an electric clipper. After disinfecting the area around the joint by spraying 70% alcohol, 1% silver nitrate solution was administered into the knee joint cavity of the left hind paw at a dose of 50 μl/joint using a 29 G needle-tipped syringe for insulin use (manufactured by Terumo Corp.).
Regarding the administration method, as in the case of algesic substances, the area around the joint was disinfected by spraying 70% alcohol under inhalation anesthesia by isoflurane, and each test substance was administered into the knee joint cavity of the left hind paw at a dose of […] using a 29 G needle-tipped syringe for insulin use (n=5).
The walking of each group was visually observed and scored by using the following pain score table which was figured walking in score under blinded conditions.
Score • 0: Normal (includes nearly normal) • 1: Mild claudication • 2: Severe claudication • 3: Walking on three legs
In addition, the weight loading on the silver nitrate-injected paw (left hind paw) was measured by using a weighting activity analgesia meter (manufactured by Tokken Inc.), and the weight loading rate was calculated by dividing the measured value by the body weight.
Test substances were orally administered by using a sonde for oral administration to rat (manufactured by Fuchigami Kikai) at a dose of 1 ml/head.
In FIG. 6, the “Diclofenac Na (p.o.) 50 mg/kg” corresponds to the above-described (i) (high dose group), and the “Diclofenac Na (p.o.) 1 mg/kg” corresponds to the above-described (ii) (low dose group).

Filter pass through test = assay type: physicochemical; conditions: 1.0% by weight in PBS, 0.45 μm porous filter (25 mm in diameter), 24° C., 5.0 kg/cm^2
Protocol: PBS in which each substance to be tested was dissolved to a concentration of 1.0% by weight was prepared. At a temperature of 24° C. under pressure of 5.0 kg/cm^2, each solution of the substances to be tested prepared in the following examples was passed through a 0.45 μm porous filter (25 mm in diameter), and the passed amount (ml) per 1 minute was measured A case in which 2 ml or more was passed is shown by “A”, and a case in which less than 2 ml was passed by “B”, and a case in which none passed by “C”.

[2] = Appearance of the 1.0% by weight solution in PBS; assay type: physicochemical; conditions: dissolved in PBS to 1.0% by weight
[3] = Sustained release property in the rabbit knee joint (residual ratio in synovial fluid and synovium); conditions: intra-articular
[4] = intra-articular injection 24 hours after 1% silver nitrate, in comparison with PBS

| Molecule | analgesic effect (pain score, walking) [1, 4] | filter pass through test (passed amount per 1 minute) (Filter pass through test) | other results |
| --- | --- | --- | --- |
| Aminopropanol-diclofenac-Introduced Sodium Hyaluronate (DS 4.3%) [Example 35] | showed analgesic effect |  |  |
| Aminoethanol-diclofenac-Introduced Sodium Hyaluronate (DS 14.7%) [Example 39] | showed remarkable analgesic effect |  |  |
| Aminopropanol-ibuprofen-Introduced Sodium Hyaluronate [Example 7] |  | A (2 ml or more was passed) |  |
| Aminopropanol-diclofenac-Introduced Sodium Hyaluronate (DS 9.7%) [Example 36] | showed a remarkable analgesic effect in comparison with PBS |  |  |
| Aminopropanol-diclofenac-Introduced Sodium Hyaluronate [Example 19] |  |  | analgesic effect (pain score, walking) ([1]; intra-articular injection 24 hours after 1% silver nitrate, in comparison with PBS, listed as DS 18.2%): showed a remarkable analgesic effect in comparison with PBS; analgesic effect (pain score, walking) ([1]; intra-articular injection 24 hours after 1% silver nitrate, in comparison with PBS, listed as diclofenac-introduced hyaluronic acid derivative): showed the analgesic effect after the administration |
| O=C(O)Cc1ccccc1Nc1c(Cl)cccc1Cl [diclofenac sodium, reference compound] | did not show significant effect in comparison with PBS |  | adverse effects observed ([1]; oral administration, high dose 50 mg/kg): positive fecal occult blood reaction, jaundice-like symptom and body weight loss were observed from the next day; analgesic effect (pain score, walking) ([1]; oral administration, high dose 50 mg/kg (1% suspension in 10% gum arabic, 1 ml/head)): showed analgesic effect; analgesic effect (pain score, walking) ([1]; oral administration, low dose 1 mg/kg (0.02% suspension in 10% gum arabic, 1 ml/head)): the effect was not found in comparison with the PBS intra-articular injection group |
| Aminopropanol-mefenamic Acid-Introduced Hyaluronic Acid [Example 17] |  | A (2 ml or more was passed) | appearance of the solution [2]: colorless and transparent liquid |
| Aminopropanol-acetylsalicylic Acid-Introduced Sodium Hyaluronate [Example 11] |  | A (2 ml or more was passed) | appearance of the solution [2]: colorless and transparent liquid |
| Aminopropanol-fenbufen-Introduced Hyaluronic Acid [Example 15] |  | A (2 ml or more was passed) |  |
| Aminopropanol-flurbiprofen-Introduced Sodium Hyaluronate [Example 9] |  | A (2 ml or more was passed) | appearance of the solution [2]: colorless and transparent liquid |
| Aminopropanol-diclofenac-Introduced Sodium Hyaluronate (65 kDa) Sodium (DS 17.1%) [Example 37] | showed diminished analgesic effect in comparison with the case of the molecular weight of 800,000 |  |  |
| CC(C(=O)O)c1cccc(C(=O)c2ccccc2)c1 (centres unmarked) [KP, ketoprofen] |  |  | time until KP disappeared from the synovial fluid and synovium [3]: ≤ 6 h; time until KP disappeared from the synovium [3]: ≤ 6 h |
| Aminopropanol-felbinac-Introduced Hyaluronic Acid [Example 13] |  | A (2 ml or more was passed) | appearance of the solution [2]: colorless and transparent liquid |
| Diaminopropane-diclofenac-Introduced Sodium Hyaluronate (DS 18.1%) [Example 41] | had no effect on the test system of this example |  |  |
